Assay results reported in patent US8431581B2, “Imidazopyrimidines and uses thereof” (priority 2008, dated 2013).
pEC50: −log10 of the molar value.

System: HIV-1 reporter virus, integrase Q148H/G140S (QHGS)
Assay: Luciferase reporter virus infectivity assay, QHGS mutant
Assay type: cell-based
Settings: 293T cells, Q148H/G140S reporter virus, Table 3; read-out: EC50 against the QHGS mutant
From the text: Infectivity assays using reporter viruses derived from lentiviral vectors capable of a single round of infection were used to determine the activity (EC50) of compounds. The DNA used to generate viruses for infection was the full-length HIV-1 genome which had been envelope-deleted. In addition, a reporter gene (the firefly luciferase gene from Photinus pyralis) was cloned into the nef region of the HIV backbone for ease of assay readout. […]. Culture supernatants containing VSV-G pseudotyped virions were harvested 64 h post transfection, clarified by centrifugation to remove cell debris, and frozen at −70° C. until use.
HIV integrase was mutated within a shuttle vector (pGEM) containing the majority of the HIV-1 gag and pol sequence using site-directed mutagenesis to generate sequences that are known to confer resistance to published integrase inhibitors. These include but are not limited to mutations such as Q148H/G140S (in tables 2 and 3 # QHGS), N155H/E92Q (in table 2 # NHEQ), F121Y/T124K (in table 2 FYTK), Y143R (in table 2 # Y143R) and the triple mutant Q148K/G140A/E138A. (in table 2 # QKGAEA). The mutated integrase coding region within the shuttle vector was sequence verified, and then exchanged for the wild-type (WT) coding sequence in the reporter virus DNA backbone.
293T cells were plated out at 12000 cells per well in CellView 96-well cell culture plates (Invitrogen) 16 h prior to compound addition. Compounds were preincubated with cells for 4 h at 37° C. prior to the addition of virus sufficient to generate approximately 10000 Luciferase light units (as measured by the Victor Wallace luminometer) upon assaying using the Bright-Glo™ reagent (Promega) according to the manufacturer's instructions at 48 h post infection.

Compound	pEC50
6-Benzyloxy-1-[2-(2,6-dimethyl-morpholin-4-yl)-2-oxo-ethyl]-7-[5-(4-fluoro-2-methylsulfanyl-benzyl)-thiazol-2-yl]-1H-imidazo[1,2-a]pyrimidin-5-one [Example 168]	6.00 to 6.30

Same assay, conditions: Human immunodeficiency virus 1, HEK-293T, read-out: EC50 against the QHGS mutant

Compound	pEC50
COC(=O)c1cc(F)ccc1Cc1cnc(-c2nc3n(CC(=O)N4C[C@H](C)O[C@@H](C)C4)ccn3c(=O)c2O)s1 (stereo in doubt) [Example 58, 2-(2-{1-[2-(2,6-Dimethyl-morpholin-4-yl)-2-oxo-ethyl]-6-hydroxy-5-oxo-1,5-dihydro-imidazo[1,2-a]pyrimidin-7-yl}-thiazol-5-ylmethyl)-5-fluoro-benzoic acid methyl ester]	6.00 to 6.30
C[C@H]1CN(C(=O)Cn2ccn3c(=O)c(O)c(-c4ncc(Cc5ccc(F)cc5S(=O)(=O)N(C)C)s4)nc23)C[C@H](C)O1 (stereo in doubt) [Example 104, 2-(2-{1-[2-(2,6-Dimethyl-morpholin-4-yl)-2-oxo-ethyl]-6-hydroxy-5-oxo-1,5-dihydro-imidazo[1,2-a]pyrimidin-7-yl}-thiazol-5-ylmethyl)-5-fluoro-N,N-dimethyl-benzenesulfonamide]	> 6.30
C[C@@H]1CN(C(=O)Cn2ccn3c(=O)c(O)c(-c4ncc(Cc5ccc(F)cc5S(C)(=O)=O)s4)nc23)C[C@@H](C)O1 (stereo in doubt) [Example 138, 1-[2-(2,6-Dimethyl-morpholin-4-yl)-2-oxo-ethyl]-7-[5-(4-fluoro-2-methanesulfonyl-benzyl)-thiazol-2-yl]-6-hydroxy-1H-imidazo[1,2-a]pyrimidin-5-one]	6.00 to 6.30
C[C@@H]1C[C@@H](C)CN(C(=O)Cn2ccn3c(=O)c(O)c(-c4ncc(Cc5ccc(F)cc5)s4)nc23)C1 (stereo in doubt) [Example 180, 1-[2-(3,5-Dimethyl-piperidin-1-yl)-2-oxo-ethyl]-7-[5-(4-fluoro-benzyl)-thiazol-2-yl]-6-hydroxy-1H-imidazo[1,2-a]pyrimidin-5-one]	6.00 to 6.30
C[C@H]1CN(C(=O)Cn2cc(N3CCCS3(=O)=O)n3c(=O)c(O)c(-c4ncc(Cc5ccc(F)cc5)s4)nc23)C[C@H](C)O1 [Example 75, 1-[2-(2,6-Dimethyl-morpholin-4-yl)-2-oxo-ethyl]-3-(1,1-dioxo-1l6-isothiazolidin-2-yl)-7-[5-(4-fluoro-benzyl)-thiazol-2-yl]-6-hydroxy-1H-imidazo[1,2-a]pyrimidin-5-one]	6.00 to 6.30
CC1CCCCN1C(=O)Cn1ccn2c(=O)c(O)c(-c3ncc(Cc4ccc(F)cc4)s3)nc12 (centres unmarked) [Example 126, 7-(5-(4-fluorobenzyl)thiazol-2-yl)-6-hydroxy-1-(2-(2-methylpiperidin-1-yl)-2-oxoethyl)imidazo[1,2-a]pyrimidin-5(1H)-one]	6.00 to 6.30
CC1CCN(C(=O)Cn2ccn3c(=O)c(O)c(-c4ncc(Cc5ccc(F)cc5)s4)nc23)CC1 [Example 157, 7-[5-(4-Fluoro-benzyl)-thiazol-2-yl]-6-hydroxy-1-[2-(4-methyl-piperidin-1-yl)-2-oxo-ethyl]-1H-imidazo[1,2-a]pyrimidin-5-one]	6.00 to 6.30
O=C(NCc1ccc(Cl)c(Cl)c1)c1nc2n(CC(=O)N3CCCCC3)cc(CN3CCOCC3)n2c(=O)c1O [Example 181, 6-Hydroxy-3-morpholin-4-ylmethyl-5-oxo-1-(2-oxo-2-piperidin-1-yl-ethyl)-1,5-dihydro-imidazo[1,2-a]pyrimidine-7-carboxylic acid 3,4-dichloro-benzylamide]	6.00 to 6.30
C[C@H]1CN(C(=O)Cn2ccn3c(=O)c(O)c(-c4ncc(Cc5ccc(F)cc5)s4)nc23)C[C@H](C)O1 [Example 182, 1-[2-((2S,6S)-2,6-Dimethyl-morpholin-4-yl)-2-oxo-ethyl]-7-[5-(4-fluoro-benzyl)-thiazol-2-yl]-6-hydroxy-1H-imidazo[1,2-a]pyrimidin-5-one]	> 6.30
CN1CCC(n2ccn3c(=O)c(O)c(-c4ncc(Cc5ccc(F)cc5)s4)nc23)C1=O (centres unmarked) [Example 183, 7-[5-(4-Fluoro-benzyl)-thiazol-2-yl]-6-hydroxy-1-(1-methyl-2-oxo-pyrrolidin-3-yl)-1H-imidazo[1,2-a]pyrimidin-5-one]	6.00 to 6.30
